Values quoted from earlier work in paper PMC3667888 (Channels, 2013).

System: Kv1 channels
Settings: applied externally; cited from earlier work

CCCCC/C=C\C/C=C\C/C=C\C/C=C\CCCC(=O)NCCO [AEA, anandamide]
inhibition of Kv1 channels by anandamide: not inhibited
